Laboratory results: patent publication US7202247B2, “1,3-bis-(substituted-phenyl)-2-propyn-1-ones and their use to treat disorders” (AtheroGenics, Inc., priority 2001, dated 2007)

Columns and labels:
[1] = tested on: VCAM-1; assay: In vitro VCAM-1 assay: TNF-α stimulated endothelial cells, cell-surface ELISA; assay type: cell-based; conditions: primary human aortic (HAEC) or pulmonary (HPAEC) endothelial cells, TNF-α 1 ng/ml, approximately 16 hours exposure
Method: Cell Culture and compound dosing: Cultured primary human aortic (HAEC) or pulmonary (HPAEC) endothelial cells were obtained from Clonetics, Inc., and were used below passage 9. Cells were seeded in 96 well plates such that they would reach 90–95% confluency by the following day. On the following day the cells were stimulated with TNF-α (1 ng/ml) in the presence or absence of compounds dissolved in DMSO such that the final concentration of DMSO is 0.25% or less. To establish a dose curve for each compound, four concentrations in 2- to 5-fold increments were used. Cells were exposed to TNF-α and compounds for approximately 16 hours. The next day the cells were examined under microscope to score for visual signs of toxicity or cell stress.
Following 16 hr exposure to TNF-α and compound the media was discarded and the cells were washed once with Hanks Balanced Salt Solution (HBSS)/Phosphate buffered saline (PBS) (1:1). Primary antibodies against VCAM-1 (0.25 μg/ml in HBSS/PBS+5% FBS) were added and incubated for 30–60 minutes at 37° C. Cells were washed with HBSS/PBS three times, and secondary antibody Horse Radish Peroxidase (HRP)-conjugated goat anti-mouse IgG (1:500 in HBSS/PBS+5% FBS) were added and incubated for 30 minutes at 37° C. Cells were washed with HBSS/PBS four time and TMB substrate were added and incubated at room temperature in the dark until there was adequate development of blue color. The length of time of incubation was typically 5–15 minutes. 2N sulfuric acid was added to stop the color development and the data was collected by reading the absorbance on a BioRad ELISA plate reader at OD 450 nm. The results are expressed as IC50 values (the concentration (micromolar) of compound required to inhibit 50% of the maximal response of the control sample stimulated by TNF-α only).

IC50 [1] [µM]	melting point	Structure (SMILES)
< 5	–	COc1cc(OC)c(-c2cccs2)cc1C#CC(=O)c1cc(OC)c(OCC(=O)O)c(OC)c1 [Example 4, {4-[3-(2,4-Dimethoxy-5-thiophen-2-yl-phenyl)-propynoyl]-2,6-dimethoxy-phenoxy}-acetic acid]
< 5	220 °C (dec.)	COc1cc(OC)c(-c2cccs2)cc1C#CC(=O)c1ccc(C(=O)O)cc1 [Example 2, 4-[3-{2,4-Dimethoxy-5-(thiophen-2-yl)-phenyl}propynoyl]-benzoic Acid]
–	198 to 200 °C	COC(=O)c1ccc(C(=O)C#Cc2cc(-c3cccs3)c(OC)cc2OC)cc1 [Example 1, 4-[3-(2,4-dimethoxy-5-thiophen-2-yl-phenyl)-propynoyl]-benzoic acid methyl ester]
< 5	–	COC(=O)COc1c(OC)cc(C(=O)C#Cc2cc(-c3cccs3)c(OC)cc2OC)cc1OC [Example 3, {4-[3-(2,4-Dimethoxy-5-thiophen-2-yl-phenyl)-propynoyl]-2,6-dimethoxy-phenoxy}-acetic acid methyl ester]
